{
  "source": "paper PMC11672299",
  "about": "“Conjugation of Polycationic Peptides Extends the Efficacy Spectrum of β‐Lactam Antibiotics” (Advanced Science, 2024)",
  "key": {"PBP2A": {"target": "T1, PBP2A (Bacillus subtilis, UniProt P54488)", "T1 construct": "endogenous in cells; host or cells: B. subtilis DSM 10, extracted membrane protein fraction", "T1 sequence (P54488 whole entry)": "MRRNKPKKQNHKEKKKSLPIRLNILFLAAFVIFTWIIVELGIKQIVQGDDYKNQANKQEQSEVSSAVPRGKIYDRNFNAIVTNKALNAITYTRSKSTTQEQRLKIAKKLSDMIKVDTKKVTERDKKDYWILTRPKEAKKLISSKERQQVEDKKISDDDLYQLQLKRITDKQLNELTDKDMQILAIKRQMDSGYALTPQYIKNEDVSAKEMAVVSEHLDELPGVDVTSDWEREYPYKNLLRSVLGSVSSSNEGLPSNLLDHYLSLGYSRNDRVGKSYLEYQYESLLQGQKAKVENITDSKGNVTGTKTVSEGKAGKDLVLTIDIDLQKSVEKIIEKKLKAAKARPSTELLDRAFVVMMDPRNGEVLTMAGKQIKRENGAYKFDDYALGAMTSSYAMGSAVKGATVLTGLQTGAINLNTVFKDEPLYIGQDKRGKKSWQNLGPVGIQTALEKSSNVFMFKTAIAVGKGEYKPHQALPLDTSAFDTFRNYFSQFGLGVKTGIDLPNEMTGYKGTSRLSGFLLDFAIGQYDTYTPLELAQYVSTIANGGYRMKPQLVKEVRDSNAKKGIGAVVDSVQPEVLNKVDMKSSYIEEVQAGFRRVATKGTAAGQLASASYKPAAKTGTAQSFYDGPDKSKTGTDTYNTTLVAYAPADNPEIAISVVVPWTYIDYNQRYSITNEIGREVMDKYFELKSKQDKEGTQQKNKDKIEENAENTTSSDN", "assay": "Gel‐based PBP affinity assay (Bocillin FL competition)", "format": "binding", "settings": "B. subtilis membrane fractions, competition with Bocillin FL penicillin; compared with parent β‐lactam", "experimental": "(§1) B. subtilis DSM 10 and E. faecalis ATCC 51 299 (equal to DSM 12 956) membrane protein fractions were extracted according to the protocol of Dean et al. with minor modifications.^[ [34] ^] From a growing overnight bacterial culture, 3 L of LB (Luria‐Bertani) medium or TSB (tryptic soy broth) were inoculated with B. subtilis DSM 10 and E. faecalis ATCC 51 299, respectively, to obtain an OD600 = 0.3. The cultures were grown to an OD600 = 0.6–0.8 while shaking at 37 °C and cells were harvested by centrifugation at 4000 g for 30 min at 4 °C. The resulting pellet was washed twice with pre‐cooled PBS and resuspended in 30 mL of ice‐cooled PBS. The suspension was sonicated on ice (10 cycles of 30 s at 50% power for B. subtilis; 12 cycles of 30 s at 80% power for E. faecalis; 2 min intervals between cycles) using an Omni Ruptor 4000 ultrasonic homogenizer (Omni International, Kennesaw, GA, USA). Afterwards, the suspension was centrifuged at 7000 g for 10 min at 4 °C. The clear supernatant was transferred into a 50 mL polypropylene tube and centrifuged in a Beckman Coulter centrifuge equipped with a JA‐20 fixed‐angle rotor (Beckman Coulter, Krefeld, Germany) at 50 000 g for 1 h at 4 °C. The resulting pellet was washed with ice‐cold PBS and centrifuged a second time. The pellet was resuspended in 2 mL PBS and aliquots were stored at −80 °C. The protein content was determined using Bradford reagent (VWR International, Darmstadt, Germany) and Pierce BCA (bicinchoninic acid) protein assay kits (Thermo Fisher Scientific, Waltham, MA, USA) for membrane fractions of B. subtilis and E. faecalis, respectively.\n(§2) Each dilution was combined with B. subtilis (30 µg) or E. faecalis (15 µg) extracted membrane fractions. As reference samples, membrane fractions incubated with only PBS were prepared. Reaction mixtures were incubated for 20 min at 37 °C while shaking at 400 rpm. Next, Bocillin FL penicillin (Thermo Fisher Scientific, Waltham, MA, USA) was added to obtain a final concentration of 20 µM in the mixture. Samples were incubated for 30 min at 37 °C while shaking at 400 rpm. To denature the samples, 4× Laemmli sample buffer (Bio‐Rad Laboratories, Feldkirchen, Germany) was added, and the samples incubated for 10 min at 70 °C. Afterwards, the samples were centrifuged for 5 min at 13 000 rpm. Samples were separated by SDS‐PAGE using a 10% Tris‐glycine gel for 100 min at 180 V. The bands were visualized using a Typhoon FLA 9500 imager (GE Healthcare, Chicago, IL, USA) with excitation at 473 nm. The gel images were analyzed using ImageJ software. Brightness and contrast were adjusted to improve the signal‐to‐noise ratio and the background signal was subtracted over the whole image. Next, integrated density values of the gel bands were measured and Bocillin FL penicillin labeling of each PBP in antibiotic‐treated samples were set in proportion to the reference sample. IC50 values were calculated with GraphPad Prism software (version 8.0.1) using inhibitor versus normalized response variable slope and least‐squares fit. […] The mean was calculated using the IC50 values of at least two independent assays for each antibiotic."}, "PBP5": {"test_system": "PBP5", "assay": "Gel‐based PBP affinity assay (Bocillin FL competition)", "format": "binding", "settings": "PBPs from vancomycin‐resistant E. faecalis; compared with parent; at concentrations considerably higher than MICs", "experimental": "as §1, §2"}, "B. subtilis DSM 10": {"test_system": "B. subtilis DSM 10", "assay": "microbe, parasite or virus in culture", "format": "cell-based", "settings": "DSM 10, 20 h", "experimental": "(§3) The minimum inhibitory concentration (MIC) of the β‐lactam–peptide conjugates was determined by broth microdilution as previously described.^[ [17] ^] Briefly, in cation‐adjusted MHB II medium, a twofold serial dilution of the compounds was prepared in 96‐well round‐bottom polystyrene or polypropylene microtiter plates with each well containing 50 µL. The plates were inoculated with 50 µL bacterial suspension and the final inoculum, in a total volume of 100 µL, contained 5 × 10^5 CFU mL^−1. The microplates were incubated for 20 h at 37 ± 1 °C. The lowest concentration preventing visible bacterial growth was considered the MIC value. For susceptibility testing of combinations of β‐lactamase‐inhibitors with either a β‐lactam antibiotic or a β‐lactam–peptide conjugate, fixed concentrations of the inhibitors according to the EUCAST (European Committee on Antimicrobial Susceptibility Testing) guidelines (clavulanic acid = 2 mg L^−1, avibactam = 4 mg L^−1) were used."}, "[1]": {"test_system": "C. freundii Tü21‐052 (clinical isolate)", "assay": "microbe, parasite or virus in culture", "format": "cell-based", "settings": "20 h", "experimental": "as §3"}, "[2]": {"test_system": "A. pittii Tü21‐041 (clinical isolate)", "assay": "microbe, parasite or virus in culture", "format": "cell-based", "settings": "20 h", "experimental": "as §3"}, "[3]": {"test_system": "E. coli Tü20‐025 (clinical isolate)", "assay": "microbe, parasite or virus in culture", "format": "cell-based", "settings": "Tü20‐025 (clinical isolate, 20 h)", "experimental": "as §3"}, "[4]": {"test_system": "E. casseliflavus ATCC 700327", "assay": "microbe, parasite or virus in culture", "format": "cell-based", "settings": "ATCC 700327, 20 h", "experimental": "as §3"}, "[5]": {"test_system": "K. pneumoniae Tü20‐036 (clinical isolate)", "assay": "microbe, parasite or virus in culture", "format": "cell-based", "settings": "Tü20‐036 (clinical isolate, 20 h)", "experimental": "as §3"}, "E. faecalis ATCC 29212": {"test_system": "E. faecalis ATCC 29212", "assay": "microbe, parasite or virus in culture", "format": "cell-based", "settings": "ATCC 29212, 20 h", "experimental": "as §3"}, "A. bohemicus DSM 100419": {"test_system": "A. bohemicus DSM 100419", "assay": "MIC by broth microdilution", "format": "cell-based", "settings": "median (n = 3)", "experimental": "as §3"}, "PBPs of B. subtilis": {"test_system": "PBPs of B. subtilis", "assay": "Gel‐based PBP affinity assay (Bocillin FL competition)", "format": "binding", "settings": "at the concentrations tested (0.016–250 µM)", "experimental": "as §1, §2"}},
  "note": "Peptide text beside a SMILES is read from it. * marks the point of attachment. X1 = CC(C)(O/N=C(\\C(=O)N[C@@H]1C(=O)N2C(C(=O)[O-])=C(C[n+]3ccccc3)CS[C@H]12)c1csc(N)n1)C(=O)NCCCCCCN1C(=O)CC(*)C1=O",
  "data": [
    {"smiles": "C[C@H]1[C@H](NC(=O)/C(=N\\OC(C)(C)C(=O)NCCCCCCN2C(=O)CC(SC[C@H](NC(=O)[C@H](CCCNC(=N)N)NC(=O)[C@H](CCCNC(=N)N)NC(=O)[C@H](CCCNC(=N)N)NC(=O)[C@H](CCCNC(=N)N)NC(=O)[C@H](CCCNC(=N)N)NC(=O)[C@@H](N)CCCNC(=N)N)C(N)=O)C2=O)c2csc(N)n2)C(=O)N1S(=O)(=O)O", "note": "(stereo partly drawn) [AZT-R6]", "values": [
      {"measurement": "affinity to PBP2A", "setting": "PBP2A", "value": "higher affinity"},
      {"measurement": "binding to PBP5", "setting": "PBP5", "value": "slightly improved binding"},
      {"measurement": "MIC", "setting": "B. subtilis DSM 10", "value": 0.06, "unit": "µg/mL"}
    ]},
    {"smiles": "N=C(N)NCCC[C@H](NC(=O)[C@H](CCCNC(=N)N)NC(=O)[C@H](CCCNC(=N)N)NC(=O)[C@H](CCCNC(=N)N)NC(=O)[C@H](CCCNC(=N)N)NC(=O)[C@@H](N)CCCNC(=N)N)C(=O)N[C@@H](CSC1CC(=O)N(CCCCCCN)C1=O)C(N)=O", "note": "(stereo partly drawn) [BB linker‐R6]", "values": [
      {"measurement": "MIC", "setting": "[1]", "value": ">64", "unit": "µg/mL"},
      {"measurement": "MIC", "setting": "[2]", "value": ">64", "unit": "µg/mL"},
      {"measurement": "MIC", "setting": "[3]", "value": ">64", "unit": "µg/mL"},
      {"measurement": "MIC", "setting": "[4]", "value": ">64", "unit": "µg/mL"},
      {"measurement": "MIC", "setting": "[5]", "value": ">64", "unit": "µg/mL"},
      {"measurement": "MIC", "setting": "B. subtilis DSM 10", "value": ">64", "unit": "µg/mL"},
      {"measurement": "MIC", "setting": "E. faecalis ATCC 29212", "value": ">64", "unit": "µg/mL"}
    ]},
    {"smiles": "CC(C)(O/N=C(\\C(=O)N[C@@H]1C(=O)N2C(C(=O)[O-])=C(C[n+]3ccccc3)CS[C@H]12)c1csc(N)n1)C(=O)NCCCCCCN1C(=O)CC(SC[C@H](NC(=O)[C@H](CCCCN)NC(=O)[C@H](CCCCN)NC(=O)[C@H](CCCCN)NC(=O)[C@H](CCCCN)NC(=O)[C@H](CCCCN)NC(=O)[C@H](CCCCN)NC(=O)[C@H](CCCCN)NC(=O)[C@H](CCCCN)NC(=O)[C@@H](N)CCCCN)C(N)=O)C1=O", "note": "(stereo partly drawn) [CTZ-K9] (H-KKKKKKKKKC(X1)-NH2; N-terminus and C-terminus assumed)", "values": [
      {"measurement": "antimicrobial activity (rank among CTZ–peptide conjugates)", "setting": "A. bohemicus DSM 100419", "value": "most potent conjugates"}
    ]},
    {"smiles": "N=C(N)NCCC[C@H](NC(=O)[C@H](CCCNC(=N)N)NC(=O)[C@H](CCCNC(=N)N)NC(=O)[C@H](CCCNC(=N)N)NC(=O)[C@H](CCCNC(=N)N)NC(=O)[C@@H](N)CCCNC(=N)N)C(=O)N[C@@H](CS)C(N)=O", "note": "[R6C]", "values": [
      {"measurement": "binding to the PBPs of B. subtilis", "setting": "PBPs of B. subtilis", "value": "not observed"},
      {"measurement": "MIC", "setting": "[4]", "value": "> 64", "unit": "µg/mL"},
      {"measurement": "MIC", "setting": "B. subtilis DSM 10", "value": "> 64", "unit": "µg/mL"},
      {"measurement": "MIC", "setting": "E. faecalis ATCC 29212", "value": "> 64", "unit": "µg/mL"}
    ]}
  ]
}
